Results published in paper PMC10326281, “Insights into the mechanisms governing P01 scorpion toxin effect against U87 glioblastoma cells oncogenesis” (Frontiers in Pharmacology, 2023).
Values after ≈ are worked out from the molar mass of the structure shown. Where a SMILES comes first, the peptide text is derived from it. Bridges are numbered along the chain shown (N, C = ends).

How the values were obtained:
[1] = test system: apamin-sensitive receptor (SKCa channels); conditions: selective blocker of SKCa channels displaced; previously reported, ref Zerrouk et al., 1996; cited from earlier work
Text: Our team has initiated the fractionation of Aa scorpion venom, in order to identify scorpion peptides targeting potassium channels involved in the oncological process. Thus, we succeeded to isolate one peptide well represented in this venom. Based on its N-terminal sequence and its mass fingerprint this peptide corresponded to the P01 toxin, previously described by ([Zerrouk et al., 1996]).

[2] = test system: LS174 colon adenocarcinoma cells; experiment: Cell adhesion assay, LS174; type: cell-based, human; conditions: data not shown
Text: (§1) The ATCC (American Type Culture Collection, Rockville, MD, United States) cancer cell lines U87 (glioblastoma), MDA-MB231 (breast cancer) and LS174 (colon adenocarcinoma) were routinely cultured in DMEM supplemented with 10% fœtal bovine serum (FBS), 1% l-glutamine and 100 IU/mL penicillin/streptomycin. […] Rat SK2 cDNA cloned into pJA5 plasmid was a gift from Dr. Skolnik (university Langone Medical center, New York). Human SK3 cDNA cloned into Pipru vector was a king gift from Pr. Soriani (Université Côte d’Azur, CNRS, Inserm, Nice, France).
Adhesion assays were performed as previously described by ([Sarray et al., 2007]). Glioblastoma U87 cells in suspension (10^6 cells/mL) were treated with 50 μg/mL of P01 and deposited on wells coated with purified extracellular matrix (ECM): Fg at 50 μg/mL; Fn at 10 μg/mL; Coll-I at 50 μg/mL; laminin (Lam) at 15 μg/mL or poly-L-lysine (PL) at 20 μg/mL for U87. MDA-MB231 and LS174 cells were also used in their adequate ECM: Fg and Coll-I respectively. They were incubated to adhere to the substrate for 2 h or 24 h at 37°C. After washing, attached cells were fixed, stained by 0.1% crystal violet, lysed with 1% SDS and quantified by measuring absorbance at 560 nm. The specific adhesion is obtained by subtracting the absorbance obtained in the absence of adhesion substrate (no specific control). […]

U87 glioblastoma cells [3] = experiment: Cell migration assay (modified Boyden chamber), U87; type: cell-based, human
Text: as §1
(§2) Cell migration assay was performed using modified Boyden chamber (NeuroProbe Inc., Bethesda, MD, United States) as previously described ([Sarray et al., 2007]). Membranes were coated with fibrinogen (Fg) (50 μg/mL), fibronectin (Fn) (10 μg/mL), collagen type I (Coll-I) (50 μg/mL) for U87, MDA-MB231 and LS174 cells respectively, for 2 h at 37°C. Cells were harvested as a single cell suspension (10^6 cells/mL) and treated with P01 at 50 μg/mL. Then added to pre-coated membranes and allowed to migrate for 5 h at 37°C in Boyden chamber. Cells were fixed on the underside of the membrane, stained by 0.1% crystal violet and migration was quantified by measuring the absorbance at 560 nm using a spectrophotometer (Thermo-Multiskan EX, Shanghai, China).

U87 glioblastoma cells [4] = experiment: Cell viability (MTT), U87; type: cell-based, human; conditions: 25–200 μg/mL, 24 h, 10,000 cells per well, n = 3
Text: as §1
(§3) The human cell lines U87, MDA-MB231, or LS174 (10,000 cells per well) were treated with P01 peptide at different concentrations (25; 50; 100 and 200 μg/mL). After 24 h, the wells were washed with phosphate-buffered saline (PBS) and then the 3-(4,5-dimethylthiazol-2-yl)-2,5-diphenyltetrazolium bromide (MTT) (0.5 mg/mL) was added to the cells as previously described ([Kouba et al., 2020]). The crystals formed after the reduction of MTT by mitochondrial dehydrogenases were dissolved with dimethylsulfoxyde (DMSO). The quantification of live cells was achieved by measuring absorbance at 560 nm using a spectrophotometer (Thermo-Multiskan EX, Shanghai, China).

U87 glioblastoma cells [5] = experiment: Cell adhesion assay, U87; type: cell-based, human; conditions: n = 3; for inhibition of adhesion: 50 μg/mL P01, 2 h
Text: as §1
Adhesion assays were performed as previously described by ([Sarray et al., 2007]). Glioblastoma U87 cells in suspension (10^6 cells/mL) were treated with 50 μg/mL of P01 and deposited on wells coated with purified extracellular matrix (ECM): Fg at 50 μg/mL; Fn at 10 μg/mL; Coll-I at 50 μg/mL; laminin (Lam) at 15 μg/mL or poly-L-lysine (PL) at 20 μg/mL for U87. MDA-MB231 and LS174 cells were also used in their adequate ECM: Fg and Coll-I respectively. They were incubated to adhere to the substrate for 2 h or 24 h at 37°C. After washing, attached cells were fixed, stained by 0.1% crystal violet, lysed with 1% SDS and quantified by measuring absorbance at 560 nm. The specific adhesion is obtained by subtracting the absorbance obtained in the absence of adhesion substrate (no specific control). To study the dose-response effect, different concentrations of P01 were used (25–100 μg/mL) and the IC50 value was determined.

[6] = test system: LS174 colon adenocarcinoma cells; experiment: Cell viability (MTT), LS174; type: cell-based, human; conditions: 25–200 μg/mL, 24 h, 10,000 cells per well, n = 3
Text: as §1, §3

αvβ3 integrin = experiment: U87 cell adhesion in presence of anti-integrin antibodies, αvβ3; type: cell-based, human; conditions: 50 μg/mL P01, 30 min pre-incubation, 2 h at 37°C, anti-αvβ3 (1/200), n = 3
Method: (§4) To study the implication of integrins in the P01 peptide activity, adhesion assays using anti-integrin blocking antibodies: anti- α1β1 (1/200), anti- αvβ3 (1/200), anti- α5 (1/200) and anti- β3 (1/200) were performed as described above, except that cells were pretreated with the active peptide P01 at 50 μg/mL.

[7] = test system: LS174 colon adenocarcinoma cells; experiment: Cell proliferation test (crystal violet), LS174; type: cell-based, human; conditions: 2–10 μg/mL, 72 h, n = 3
Text: as §1
The effect of the P01 peptide on cell proliferation was studied. The human cell lines U87, MDA-MB231 or LS174 (5,000 cells per well) were treated with 2; 5 and 10 μg/mL of P01 peptide. The plates were placed at 37°C for 72 h. Cellular proliferation was quantified at 560 nm by a spectrophotometer (Thermo-Multiskan EX, Shanghai, China) after treatment with 1% glutaraldehyde and staining with 0.1% crystal violet.
Every 24 h, a series of wells was washed with PBS, the cells were fixed with 1% glutaraldehyde, and preserved in PBS to follow the kinetics of proliferation. After 72 h, the cells were stained with crystal violet 0.1% and quantified by measuring the absorbance at 560 nm using a spectrophotometer (Thermo-Multiskan EX, Shanghai, China).

[8] = test system: MDA-MB231 breast cancer cells; experiment: Cell viability (MTT), MDA-MB231; type: cell-based, human; conditions: 25–200 μg/mL, 24 h, 10,000 cells per well, n = 3
Text: as §1, §3

[9] = test system: LS174 colon adenocarcinoma cells; experiment: Cell migration assay (modified Boyden chamber), LS174; type: cell-based, human; conditions: 50 μg/mL, 5 h, collagen type I 50 μg/mL coating, n = 3
Text: as §1, §2

α1β1 integrin = experiment: U87 cell adhesion in presence of anti-integrin antibodies, α1β1; type: cell-based, human; conditions: 50 μg/mL P01, 30 min pre-incubation, 2 h at 37°C, anti-α1β1 (1/200), n = 3
Method: as §4

[10] = test system: MDA-MB231 breast cancer cells; experiment: Cell migration assay (modified Boyden chamber), MDA-MB231; type: cell-based, human; conditions: 50 μg/mL, 5 h, fibronectin 10 μg/mL coating, n = 3
Text: as §1, §2

Structure (SMILES): CC[C@H](C)[C@H](NC(=O)[C@@H]1CCCN1C(=O)[C@H](CCC(=O)O)NC(=O)[C@@H]1CSSC[C@@H]2NC(=O)[C@H](Cc3c[nH]cn3)NC(=O)[C@H](CCC(=O)O)NC(=O)[C@@H]3CCCN3C(=O)[C@@H]3CSSC[C@H](NC(=O)[C@H](CCCCN)NC(=O)[C@H](CC(=O)O)NC(=O)[C@H](CC(N)=O)NC(=O)[C@H](CC(=O)O)NC(=O)[C@H](CSSC[C@H](NC(=O)[C@H](CO)NC(=O)[C@@H](N)C(C)C)C(=O)N[C@@H](CCC(=O)O)C(=O)N[C@@H](CC(=O)O)C(=O)N3)NC(=O)[C@H](CCCCN)NC(=O)[C@H](C)NC(=O)[C@H](CCC(N)=O)NC(=O)[C@H](C)NC(=O)[C@H](CCCCN)NC(=O)[C@H](CCC(N)=O)NC(=O)[C@H]([C@@H](C)O)NC(=O)[C@H](CO)NC2=O)C(=O)N[C@@H](C(C)C)C(=O)N1)C(=O)O [P01] (H-VSCEDCPEHCSTQKAQAKCDNDKCVCEPI-OH; disulfide 3-19, 6-24, 10-26 (inferred); N-terminus and C-terminus assumed)
- inhibition of 125I-apamin binding [1]: inhibit the binding of ^125I-apamin
- effect on adhesion [2]: not affected
- inhibition of migration (U87 glioblastoma cells [3]; 50 μg/mL, 5 h at 37°C, fibrinogen 50 μg/mL coating, n = 3): 48%
- IC50 (migration) (U87 glioblastoma cells [3]; Boyden chamber, 5 h): 50 µg/mL (≈ 15.7 µM)
- cytotoxic effect (cell viability) (U87 glioblastoma cells [4]): did not have a cytotoxic effect
- effect on adhesion after 24 h, Fg and Fn (U87 glioblastoma cells [5]; Fg and Fn, 50 μg/mL P01, 24 h): stayed active on Fg and Fn
- inhibition of adhesion (U87 glioblastoma cells [5]; fibrinogen (Fg), 37°C): 41%
- IC50 (adhesion to Fg) (U87 glioblastoma cells [5]; fibrinogen, 25–100 μg/mL, 2 h): 48.86 µg/mL (≈ 15.4 µM)
- inhibition of adhesion (U87 glioblastoma cells [5]; fibronectin (Fn), 37°C): 38%
- IC50 (adhesion to Fn) (U87 glioblastoma cells [5]; fibronectin, 25–100 μg/mL, 2 h): 62.04 µg/mL (≈ 19.5 µM)
- inhibition of adhesion (U87 glioblastoma cells [5]; poly-L-lysine (Pl)): no inhibition could be observed
- effect on adhesion after 24 h, Pl (U87 glioblastoma cells [5]; poly-L-lysine (Pl), 50 μg/mL P01, 24 h): an inhibition effect on Pl appeared
- cytotoxic effect (cell viability) [6]: did not have a cytotoxic effect
- effect on adhesive function of αvβ3 (αvβ3 integrin): reduced the adhesive function
- effect on cell proliferation [7]: no effect
- cytotoxic effect (cell viability) [8]: did not have a cytotoxic effect
- effect on migration [9]: no effect
- effect on adhesive function of α1β1 (α1β1 integrin): reduced the adhesive function
- effect on migration [10]: no effect
